Data as given in article PMC2916031 (Journal of molecular biology, 2010).

How the values were obtained:
[1] = target: C-terminally truncated MEAT1 (Trypanosoma brucei, UniProt C7AJA4); experiment: U-addition to […]'-labelled RNA, denaturing gel; assay type: biochemical; conditions: 100 µM UTP, 300 nM enzyme, 1 µM RNA, Mg acetate, pH 8.0, 27 °C
full-length TbMEAT1 = full-length TbMEAT1 (Trypanosoma brucei, UniProt C7AJA4); experiment: U-addition to […]'-labelled RNA, denaturing gel; assay type: biochemical; conditions: 100 µM UTP, 300 nM enzyme, 1 µM RNA, Mg acetate, pH 8.0, 27 °C
Chain of full-length TbMEAT1 (C7AJA4 whole entry): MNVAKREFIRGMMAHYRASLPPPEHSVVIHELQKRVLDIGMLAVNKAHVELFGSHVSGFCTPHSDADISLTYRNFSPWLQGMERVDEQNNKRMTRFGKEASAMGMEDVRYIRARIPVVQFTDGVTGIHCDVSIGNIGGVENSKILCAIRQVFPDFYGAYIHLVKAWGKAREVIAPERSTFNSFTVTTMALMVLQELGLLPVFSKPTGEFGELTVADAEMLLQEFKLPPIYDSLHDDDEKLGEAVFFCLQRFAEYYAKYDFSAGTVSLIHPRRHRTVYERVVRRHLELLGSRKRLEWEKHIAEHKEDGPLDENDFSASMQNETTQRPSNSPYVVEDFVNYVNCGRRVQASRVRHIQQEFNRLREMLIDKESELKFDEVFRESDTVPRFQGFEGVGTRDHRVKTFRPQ

Chain of C-terminally truncated MEAT1 (C7AJA4 1-381): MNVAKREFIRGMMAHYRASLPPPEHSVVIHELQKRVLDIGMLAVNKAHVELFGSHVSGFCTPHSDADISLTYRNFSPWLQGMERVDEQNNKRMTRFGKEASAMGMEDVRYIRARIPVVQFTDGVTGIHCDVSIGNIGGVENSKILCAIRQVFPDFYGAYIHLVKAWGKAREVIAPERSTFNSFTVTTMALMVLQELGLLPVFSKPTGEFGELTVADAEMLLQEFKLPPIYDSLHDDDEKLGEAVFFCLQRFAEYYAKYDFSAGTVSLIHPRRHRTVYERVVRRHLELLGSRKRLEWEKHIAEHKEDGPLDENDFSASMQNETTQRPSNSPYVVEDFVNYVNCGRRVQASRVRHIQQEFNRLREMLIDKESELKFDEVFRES

O=c1ccn([C@@H]2O[C@H](COP(=O)(O)OP(=O)(O)OP(=O)(O)O)[C@@H](O)[C@H]2O)c(=O)[nH]1 [UTP]
U-addition to 5'-labelled RNA, denaturing gel [1]: neither limited proteolysis nor genetically-engineered C-terminal deletion had any discernable effects on enzymatic activity | U-addition to 5'-labelled RNA, denaturing gel (full-length TbMEAT1): U-addition patterns for full-length TbMEAT1
